This note sets out measurements from patent US20230286970A1, “NOVEL OXADIAZOLE-BASED SELECTIVE HDAC6 INHIBITORS” (ITALFARMACO S.P.A., priority 2020, published 2023).

For data set [1], the target named is recombinant human HDAC6 (Homo sapiens (Human), UniProt Q9UBN7). The data set can be described thus: Enzymatic screening, HDAC6 inhibition (fluorogenic FdL_G substrate). The class given is biochemical. Summed up: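 Enzyme was preincubated with compound (8 doses, triplicate, 1% DMSO) in 25 mM Tris-HCl pH 8, 130 mM NaCl, 0.05% Tween-20, 10% glycerol, with BSA. A FLUOR DE LYS-Green substrate was then added, and fluorescence was read after developer plus 2 μM TSA.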

Data set [2] addresses recombinant human HDAC1 (Homo sapiens (Human), UniProt Q13547). The data set can be described thus: Enzymatic screening, HDAC1 inhibition (fluorogenic FdL_G substrate). The class given is biochemical. Summed up:
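Recombinant human HDAC1 inhibition was measured fluorometrically using the FLUOR DE LYS-Green (FdL_G) substrate. Compounds at 8 doses (1% DMSO final) in Tris-HCl pH 8 buffer with NaCl, Tween-20 and glycerol were preincubated in triplicate with enzyme and 1 mg/mL BSA, then given substrate. Developer I plus 2 μM TSA was added, and fluorescence read after 25 minutes in the dark.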

Data set [3] is described as follows: Stability in rat plasma. The following applies: after 4 hours, 37° C.
Data set [4] is described as follows: Stability in human plasma. The following applies: after 4 hours, 37° C.
Data set [5] is described as follows: Stability to Phase I metabolism in rat S9 liver fraction. The note with it: after 90 minutes, 37° C.
Method: (§1) Test compounds were incubated in rat and human liver S9 fraction at 37° C. up to 90 minutes in order to evaluate their stability to Phase I metabolism by hepatic enzymes. Each test compound was incubated at μM concentration (50 μM when the samples were analysed by UV/HPLC, 1 or 2 μM when the samples were analysed by LC-MS/MS) with S9 fraction (protein content 2 mg/m L) in 100 mM phosphate buffer (pH 7.4), 3.3 mM MgCl2 and 1.3 mM NADPH for 0, 10, 30, 60 and 90 minutes at 37° C. in a thermostated oscillating bath. The reaction was stopped placing samples on ice bath and adding acidified acetonitrile. After centrifugation (10 minutes at 14000 rpm) an aliquot of the supernatant was diluted with water, filtered with 0.45 μm regenerated cellulose syringe filters and injected in HPLC-UV or in LC-MS/MS. The percentage of the remaining amount at the various incubation times with respect to the initial amount were calculated.
Data set [6] in a line: Stability to Phase I metabolism in human S9 liver fraction. The note with it: after 90 minutes, 37° C.
Method: as §1

Sequence of recombinant human HDAC6 (Q9UBN7 whole entry): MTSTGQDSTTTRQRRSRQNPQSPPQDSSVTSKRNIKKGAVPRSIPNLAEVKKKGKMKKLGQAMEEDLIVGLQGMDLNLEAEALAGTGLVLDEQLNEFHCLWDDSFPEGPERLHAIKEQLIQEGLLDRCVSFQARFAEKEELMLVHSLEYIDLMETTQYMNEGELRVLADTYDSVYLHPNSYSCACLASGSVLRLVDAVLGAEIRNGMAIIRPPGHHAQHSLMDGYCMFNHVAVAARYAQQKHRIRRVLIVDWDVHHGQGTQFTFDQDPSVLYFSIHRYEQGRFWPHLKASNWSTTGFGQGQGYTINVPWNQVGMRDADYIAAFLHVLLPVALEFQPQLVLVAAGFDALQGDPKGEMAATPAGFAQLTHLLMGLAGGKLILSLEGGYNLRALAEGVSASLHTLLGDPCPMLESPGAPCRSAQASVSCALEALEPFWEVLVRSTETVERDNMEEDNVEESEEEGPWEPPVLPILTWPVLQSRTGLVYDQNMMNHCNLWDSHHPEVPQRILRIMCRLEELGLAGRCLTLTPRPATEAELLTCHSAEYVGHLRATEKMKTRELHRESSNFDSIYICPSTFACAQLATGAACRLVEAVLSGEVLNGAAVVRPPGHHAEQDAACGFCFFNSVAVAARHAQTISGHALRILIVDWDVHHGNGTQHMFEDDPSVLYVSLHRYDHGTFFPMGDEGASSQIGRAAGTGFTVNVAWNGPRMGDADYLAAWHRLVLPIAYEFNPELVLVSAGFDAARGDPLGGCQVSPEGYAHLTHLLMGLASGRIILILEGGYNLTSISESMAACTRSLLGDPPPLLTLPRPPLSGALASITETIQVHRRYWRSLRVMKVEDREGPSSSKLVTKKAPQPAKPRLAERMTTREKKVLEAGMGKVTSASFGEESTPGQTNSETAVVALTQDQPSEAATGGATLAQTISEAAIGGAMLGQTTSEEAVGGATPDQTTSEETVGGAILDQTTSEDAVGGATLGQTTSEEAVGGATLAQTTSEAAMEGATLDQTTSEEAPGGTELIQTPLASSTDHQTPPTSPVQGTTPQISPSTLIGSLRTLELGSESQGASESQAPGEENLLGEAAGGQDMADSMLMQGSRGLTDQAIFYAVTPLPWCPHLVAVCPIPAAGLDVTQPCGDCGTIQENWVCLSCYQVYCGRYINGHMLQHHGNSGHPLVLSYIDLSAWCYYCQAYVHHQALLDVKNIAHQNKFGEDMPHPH
Sequence of recombinant human HDAC1 (Q13547 whole entry): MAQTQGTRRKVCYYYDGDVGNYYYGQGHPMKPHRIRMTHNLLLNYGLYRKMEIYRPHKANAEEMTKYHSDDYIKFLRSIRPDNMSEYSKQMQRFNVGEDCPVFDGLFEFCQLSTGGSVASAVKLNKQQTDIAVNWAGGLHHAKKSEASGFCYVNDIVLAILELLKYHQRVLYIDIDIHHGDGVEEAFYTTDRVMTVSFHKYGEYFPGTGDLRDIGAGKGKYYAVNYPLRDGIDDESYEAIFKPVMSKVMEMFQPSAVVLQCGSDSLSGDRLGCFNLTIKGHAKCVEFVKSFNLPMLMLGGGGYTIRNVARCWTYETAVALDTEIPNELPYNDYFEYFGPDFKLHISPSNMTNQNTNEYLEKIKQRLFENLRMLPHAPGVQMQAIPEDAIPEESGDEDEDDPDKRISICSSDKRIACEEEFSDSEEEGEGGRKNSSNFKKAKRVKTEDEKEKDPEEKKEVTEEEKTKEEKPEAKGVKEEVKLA

In general, IC50 refers to the point on the concentration scale where inhibition reaches its midpoint. Consider `O=C1Nc2ccc(-c3cn(Cc4ccc(-c5nnc(C(F)F)o5)cn4)nn3)cc2[C@@]12CCNC2` (single isomer, unassigned) [compound 273, 5-(1-((5-(5-(difluoromethyl)-1,3,4-oxadiazol-2-yl)pyridin-2-yl)methyl)-1H-1,2,3-triazol-4-yl)spiro[indoline-3,3′-pyrrolidin]-2-one], for which the IC50 is 0.022 µM in data set [1] and above 200 µM in data set [2]. In data set [3], the “residual percentage in RAT PLASMA” value came out at 74%. Also, the “residual percentage in HUMAN PLASMA” value in data set [4] is 83%. In addition, the “residual percentage in RAT S9 FRACTION” value in data set [5] is reported as 99%. Besides, the “residual percentage in HUMAN S9 FRACTION” value in data set [6] stood at 92%.
As to `CCC[C@@H](c1ccc(-c2nnc(C(F)F)o2)cc1)n1cc(-c2ccc(N)nc2)nn1` (stereo in doubt) [compound 193, 5-(1-(1-(4-(5-(difluoromethyl)-1,3,4-oxadiazol-2-yl)phenyl)butyl)-1H-1,2,3-triazol-4-yl)pyridin-2-amine], the IC50 was 0.104 µM in data set [1] and above 200 µM in data set [2]. In addition, the “residual percentage in RAT PLASMA” value in data set [3] amounted to 92%. For the same molecule, in data set [4], the “residual percentage in HUMAN PLASMA” value was determined as 81%. Moreover, in data set [5], the “residual percentage in RAT S9 FRACTION” value was 80%. The “residual percentage in HUMAN S9 FRACTION” value in data set [6] was determined as 87%.
On to `CC[C@H](c1ccc(-c2nnc(C(F)F)o2)cc1)n1cc(-c2ccc(N)nc2)nn1` (stereo in doubt) [compound 194, 5-(1-(1-(4-(5-(difluoromethyl)-1,3,4-oxadiazol-2-yl)phenyl)propyl)-1H-1,2,3-triazol-4-yl)pyridin-2-amine], for which the results for the concentration for half-maximal inhibition (IC50) in data set [1] and in data set [2] were 0.104 µM and above 200 µM, respectively. The “residual percentage in RAT PLASMA” value in data set [3] is recorded as 88%. The “residual percentage in HUMAN PLASMA” value in data set [4] was determined as 90%. Moreover, the “residual percentage in RAT S9 FRACTION” value in data set [5] is 77%. For the same molecule, the “residual percentage in HUMAN S9 FRACTION” value in data set [6] stood at 95%.
For `Nc1nc2ccc(-c3cn(Cc4ccc(-c5nnc(C(F)F)o5)cn4)nn3)cc2[nH]1` [Compd. 30, 6-(1-((5-(5-(difluoromethyl)-1,3,4-oxadiazol-2-yl)pyridin-2-yl)methyl)-1H-1,2,3-triazol-4-yl)-1H-benzo[d]imidazol-2-amine], the results for the IC50 in data set [1] and in data set [2] were 0.01 µM and above 200 µM, respectively. The “residual percentage in RAT PLASMA” value in data set [3] stood at 68%. In addition, the “residual percentage in HUMAN PLASMA” value in data set [4] was determined as 87%. Moreover, the “residual percentage in RAT S9 FRACTION” value in data set [5] came out at 96%. The “residual percentage in HUMAN S9 FRACTION” value in data set [6] was found to be 80%.
In the case of `CC(c1ccc(-c2nnc(C(F)F)o2)cn1)n1cc(-c2ccc(N)nc2)nn1` (stereo not shown) [Compd. 59, 5-(1-(1-(5-(5-(difluoromethyl)-1,3,4-oxadiazol-2-yl)pyridin-2-yl)ethyl)-1H-1,2,3-triazol-4-yl)pyridin-2-amine], the IC50 is 0.024 µM in data set [1] and above 200 µM in data set [2]. In addition, in data set [3], the “residual percentage in RAT PLASMA” value was 83%. In addition, the “residual percentage in HUMAN PLASMA” value in data set [4] worked out at 87%. In addition, in data set [5], the “residual percentage in RAT S9 FRACTION” value turned out to be 97%. For the same molecule, the “residual percentage in HUMAN S9 FRACTION” value in data set [6] was determined as 98%.
`CS(=O)(=O)NCCC(c1ccc(-c2nnc(C(F)F)o2)cc1)c1cn(-c2ccc(N)nc2)nn1` (stereo not shown) [Compd. 62, N-{3-[1-(6-aminopyridin-3-yl)-1H-1,2,3-triazol-4-yl]-3-{4-[5-(difluoromethyl)-1,3,4-oxadiazol-2-yl]phenyl}propyl}methanesulfonamide]: the IC50 in data set [1] was 0.027 µM; in data set [2], above 200 µM. For the same molecule, in data set [3], the “residual percentage in RAT PLASMA” value amounted to 69%. Further, the “residual percentage in HUMAN PLASMA” value in data set [4] is on record as 88%. Moreover, the “residual percentage in RAT S9 FRACTION” value in data set [5] is listed as 86%. Besides, the “residual percentage in HUMAN S9 FRACTION” value in data set [6] turned out to be 95%.
In the case of `O=C(Nc1ccc(-c2nnc(Cc3ccc(-c4nnc(C(F)F)o4)cn3)s2)cn1)C(F)F` [Compd. 102, N-(5-(5-((5-(5-(difluoromethyl)-1,3,4-oxadiazol-2-yl)pyridin-2-yl)methyl)-1,3,4-thiadiazol-2-yl)pyridin-2-yl)-2,2-difluoroacetamide], the results for the IC50 in data set [1] and in data set [2] were 0.039 µM and above 200 µM, respectively. In data set [3], the “residual percentage in RAT PLASMA” value was found to be 90%. Further, in data set [4], the “residual percentage in HUMAN PLASMA” value is 92%. Moreover, in data set [5], the “residual percentage in RAT S9 FRACTION” value was 56%. In addition, the “residual percentage in HUMAN S9 FRACTION” value in data set [6] came to 82%.
For `CC(c1ccc(-c2nnc(C(F)F)o2)cc1)n1cc(-c2ccc(N)nc2)nn1` (stereo not shown) [Compd. 117, 5-(1-(1-(4-(5-(difluoromethyl)-1,3,4-oxadiazol-2-yl)phenyl)ethyl)-1H-1,2,3-triazol-4-yl)pyridin-2-amine], the IC50 in data set [1] was 0.044 µM; in data set [2] it was above 200 µM. In data set [3], the “residual percentage in RAT PLASMA” value is 74%. In addition, the “residual percentage in HUMAN PLASMA” value in data set [4] was 92%. Moreover, the “residual percentage in RAT S9 FRACTION” value in data set [5] is given as 71%. Moreover, the “residual percentage in HUMAN S9 FRACTION” value in data set [6] was 93%.
For `FC(F)c1nnc(-c2ccc(Cn3cc(-c4ccc5[nH]c(N6CCOCC6)nc5c4)nn3)cc2)o1` [Compd. 174, 4-(5-(1-(4-(5-(difluoromethyl)-1,3,4-oxadiazol-2-yl)benzyl)-1H-1,2,3-triazol-4-yl)-1H-benzo[d]imidazol-2-yl)morpholine], the 50% inhibitory concentration (IC50) in data set [1] is 0.087 µM; in data set [2], above 200 µM. The “residual percentage in RAT PLASMA” value in data set [3] was 80%. Moreover, the “residual percentage in HUMAN PLASMA” value in data set [4] is on record as 88%. Besides, the “residual percentage in RAT S9 FRACTION” value in data set [5] stood at 72%. In addition, in data set [6], the “residual percentage in HUMAN S9 FRACTION” value worked out at 91%.
`Nc1ccc(-c2nnc(Cc3ccc(-c4nnc(C(F)F)o4)cc3)o2)cn1` [Compd. 218, 5-(5-(4-(5-(difluoromethyl)-1,3,4-oxadiazol-2-yl)benzyl)-1,3,4-oxadiazol-2-yl)pyridin-2-amine]: the IC50 in data set [1] was 0.156 µM; in data set [2], above 200 µM. In data set [3], the “residual percentage in RAT PLASMA” value stood at 69%. Besides, the “residual percentage in HUMAN PLASMA” value in data set [4] is reported as 92%. In addition, the “residual percentage in RAT S9 FRACTION” value in data set [5] stood at 89%. Further, the “residual percentage in HUMAN S9 FRACTION” value in data set [6] was found to be 86%.
With `CCNc1nc2ccc(-c3cn(Cc4ccc(-c5nnc(C(F)F)o5)cc4)nn3)cc2[nH]1` [compd. 60, 6-(1-(4-(5-(difluoromethyl)-1,3,4-oxadiazol-2-yl)benzyl)-1H-1,2,3-triazol-4-yl)-N-ethyl-1H-benzo[d]imidazol-2-amine], the IC50 was found to be 0.026 µM in data set [1] and 32.9 µM in data set [2]. In addition, the “residual percentage in RAT PLASMA” value in data set [3] is listed as 81%. Also, the “residual percentage in HUMAN PLASMA” value in data set [4] stood at 76%. In data set [5], the “residual percentage in RAT S9 FRACTION” value turned out to be 94%. The “residual percentage in HUMAN S9 FRACTION” value in data set [6] was 70%.
With `FC(F)c1nnc(-c2ccc(Cn3cc(-c4ccc(NC5=NCCN5)cc4)cn3)nc2)o1` [compd. 270, N-(4-(1-((5-(5-(difluoromethyl)-1,3,4-oxadiazol-2-yl)pyridin-2-yl)methyl)-1H-pyrazol-4-yl)phenyl)-4,5-dihydro-1H-imidazol-2-amine], the figures for the IC50 in data set [1] and in data set [2] were 0.018 µM and above 200 µM, respectively. Also, the “residual percentage in RAT PLASMA” value in data set [3] was found to be 78%. Moreover, the “residual percentage in HUMAN PLASMA” value in data set [4] is 89%. For the same molecule, the “residual percentage in RAT S9 FRACTION” value in data set [5] amounted to 79%. In addition, in data set [6], the “residual percentage in HUMAN S9 FRACTION” value is reported as 93%.
For `O=C1Nc2ccc(-c3cn(Cc4ccc(-c5nnc(C(F)F)o5)cn4)nn3)cc2C12CCNC2` (stereo not shown) [compound 28, 5-(1-((5-(5-(difluoromethyl)-1,3,4-oxadiazol-2-yl)pyridin-2-yl)methyl)-1H-1,2,3-triazol-4-yl)spiro[indoline-3,3′-pyrrolidin]-2-one], the values for the IC50 in data set [1] and in data set [2] were 0.013 µM and above 200 µM, respectively. In addition, the “residual percentage in RAT PLASMA” value in data set [3] amounted to 64%. The “residual percentage in HUMAN PLASMA” value in data set [4] was found to be 74%. For the same molecule, the “residual percentage in RAT S9 FRACTION” value in data set [5] is on record as 97%. Besides, the “residual percentage in HUMAN S9 FRACTION” value in data set [6] amounted to 98%.
Turning to `O=C1Nc2ccc(-c3cn(Cc4ccc(-c5nnc(C(F)F)o5)cn4)nn3)cc2NC12CCNCC2` [compound 36], the figures for the IC50 in data set [1] and in data set [2] were 0.016 µM and above 200 µM, respectively. In addition, the “residual percentage in RAT PLASMA” value in data set [3] came out at 76%. The “residual percentage in HUMAN PLASMA” value in data set [4] is 78%. In data set [5], the “residual percentage in RAT S9 FRACTION” value is 94%. The “residual percentage in HUMAN S9 FRACTION” value in data set [6] stood at 89%.
For the molecule `CC(=O)Nc1cccc(-c2cn(Cc3ccc(-c4nnc(C(F)F)o4)cn3)nn2)c1` [compound 37, N-(3-(1-((5-(5-(difluoromethyl)-1,3,4-oxadiazol-2-yl)pyridin-2-yl)methyl)-1H-1,2,3-triazol-4-yl)phenyl)acetamide], the figures for the IC50 in data set [1] and in data set [2] were 0.017 µM and above 200 µM, respectively. Besides, the “residual percentage in RAT PLASMA” value in data set [3] stood at 83%. In addition, in data set [4], the “residual percentage in HUMAN PLASMA” value is reported as 90%. Further, the “residual percentage in RAT S9 FRACTION” value in data set [5] is given as 78%. In data set [6], the “residual percentage in HUMAN S9 FRACTION” value stood at 71%.
Consider `C[C@@H](c1ccc(-c2nnc(C(F)F)o2)cc1)n1cc(-c2ccc(N)nc2)nn1` [compound 255, (S)-5-(1-(1-(4-(5-(difluoromethyl)-1,3,4-oxadiazol-2-yl)phenyl)ethyl)-1H-1,2,3-triazol-4-yl)pyridin-2-amine], for which the “residual percentage in RAT PLASMA” value in data set [3] is recorded as 57%. The “residual percentage in HUMAN PLASMA” value in data set [4] worked out at 91%. In addition, the “residual percentage in RAT S9 FRACTION” value in data set [5] is on record as 76%. Also, the “residual percentage in HUMAN S9 FRACTION” value in data set [6] amounted to 98%.
